Assay results taken from the NIST ThermoML archive (doi:10.1016/j.jct.2012.05.007).

Details: Liquid, Falling or rolling sphere viscometry

COCC[N+]1(C)CCCC1.O=S(=O)([N-]S(=O)(=O)C(F)(F)F)C(F)(F)F
viscosity [mPa·s]
Details	10000 kPa	15000 kPa	25000 kPa	50000 kPa	75000 kPa	100000 kPa	125000 kPa	150000 kPa
313.15 K	33.3	35.3	39.5	52	67.5	86.9	111.2	141.5
343.15 K	14.8	15.5	17	21.2	26.2	32.3	39.6	48.5
363.15 K	10.2	10.7	11.6	14.3	17.5	21.2	25.5	30.5

CCOS(=O)(=O)[O-].CCn1cc[n+](C)c1 [1-ethyl-3-methylimidazolium ethyl sulfate]
viscosity [mPa·s]
Details	10000 kPa	15000 kPa	25000 kPa	50000 kPa	75000 kPa	100000 kPa	125000 kPa	150000 kPa
313.15 K	54.3	56.4	60.9	73.6	88.6	106.6	128.1	153.8
343.15 K	20.2	20.9	22.3	26.1	30.3	35	40.2	46.1
363.15 K	13.2	13.6	14.5	16.8	19.2	22	25	28.2

CCCC[N+]1(C)CCCC1.O=S(=O)([N-]S(=O)(=O)C(F)(F)F)C(F)(F)F
viscosity [mPa·s]
Details	10000 kPa	15000 kPa	25000 kPa	50000 kPa	75000 kPa	100000 kPa	125000 kPa	150000 kPa
313.15 K	46.5	49.5	55.9	74.8	98.8	129.4	168.4	218
343.15 K	18.2	19.1	21.1	26.6	33.6	42.1	52.8	66.3
363.15 K	12.2	12.8	14.1	17.7	21.9	26.7	32.2	38.7
